According to publication PMC5218480 (PLoS ONE, 2017):

Test system: MV-4-11 cells
Assay: Gene expression microarray analysis (Affymetrix PrimeView) and GSEA
Type: cell-based, human
Design: RFU PODN (11730768_x_at) / Fold change /veh PODN (11730768_x_at) / RFU LINC00158 (11744669_a_at) / Fold change /veh LINC00158 (11744669_a_at) / RFU DUSP10 (11751237_a_at) / Fold change /veh DUSP10 (11751237_a_at) / RFU ID3 (11757404_x_at) / Fold change /veh ID3 (11757404_x_at) / RFU PLEKHG5 (11737974_s_at) / Fold change /veh PLEKHG5 (11737974_s_at) / RFU LRRC4B (11730491_at) / Fold change /veh LRRC4B (11730491_at) / RFU GIMAP4 (11747438_a_at) / Fold change /veh GIMAP4 (11747438_a_at) / RFU KRT8 (11758183_x_at) / Fold change /veh KRT8 (11758183_x_at) / RFU CNN1 (11734310_a_at) / Fold change /veh CNN1 (11734310_a_at) / RFU VPS37D (11726825_at) / Fold change /veh VPS37D (11726825_at) / RFU C10orf10 (11716522_x_at) / Fold change /veh C10orf10 (11716522_x_at) / RFU KIR2DL2 /// KIR2DL4 /// KIR2DL5A /// KIR2DL5B /// KIR2DS1 /// KIR2DS2 /// KIR2DS3 /// KIR2DS4 /// KIR3DL3 /// KIR3DL3 /// KIR3DS1 (11738374_at) / Fold change /veh KIR2DL2 /// KIR2DL4 /// KIR2DL5A /// KIR2DL5B /// KIR2DS1 /// KIR2DS2 /// KIR2DS3 /// KIR2DS4 /// KIR3DL3 /// KIR3DL3 /// KIR3DS1 (11738374_at) / RFU C1QL1 (11718748_at) / Fold change /veh C1QL1 (11718748_at) / RFU TMPRSS4 (11747572_a_at) / Fold change /veh TMPRSS4 (11747572_a_at) / RFU HAMP (11756126_x_at) / Fold change /veh HAMP (11756126_x_at) / RFU RNFT2 (11725882_a_at) / Fold change /veh RNFT2 (11725882_a_at) / RFU NR4A2 (11747474_a_at) / Fold change /veh NR4A2 (11747474_a_at) / RFU ABCC12 (11746883_a_at) / Fold change /veh ABCC12 (11746883_a_at) / RFU TMEM136 (11760407_x_at) / Fold change /veh TMEM136 (11760407_x_at) / RFU CLDN22 /// WWC2 (11732394_at) / Fold change /veh CLDN22 /// WWC2 (11732394_at) / RFU HLA-DPB1 (11760878_x_at) / Fold change /veh HLA-DPB1 (11760878_x_at) / RFU SPINT1 (11716480_a_at) / Fold change /veh SPINT1 (11716480_a_at) / RFU GAP43 (11754022_s_at) / Fold change /veh GAP43 (11754022_s_at) / RFU A4GNT (11735810_at) / Fold change /veh A4GNT (11735810_at) / RFU PRB3 (11715151_x_at) / Fold change /veh PRB3 (11715151_x_at) / RFU TUBB4B (11761932_at) / Fold change /veh TUBB4B (11761932_at) / RFU CAPN14 (11732068_a_at) / Fold change /veh CAPN14 (11732068_a_at) / RFU TMCC2 (11721928_a_at) / Fold change /veh TMCC2 (11721928_a_at) / RFU IRGQ (11745062_a_at) / Fold change /veh IRGQ (11745062_a_at) / RFU FAM174B (11720279_a_at) / Fold change /veh FAM174B (11720279_a_at) / RFU TMPRSS4 (11748680_a_at) / Fold change /veh TMPRSS4 (11748680_a_at) / RFU FAM212B (11763350_a_at) / Fold change /veh FAM212B (11763350_a_at) / RFU PLEKHG5 (11743358_a_at) / Fold change /veh PLEKHG5 (11743358_a_at) / RFU ZSCAN30 (11745921_a_at) / Fold change /veh ZSCAN30 (11745921_a_at) / RFU CMKLR1 (11741424_a_at) / Fold change /veh CMKLR1 (11741424_a_at) / RFU LOC101060620 /// MAPK8IP1 (11723275_at) / Fold change /veh LOC101060620 /// MAPK8IP1 (11723275_at) / RFU SPTSSB (11747773_x_at) / Fold change /veh SPTSSB (11747773_x_at) / RFU PRSS12 (11739890_at) / Fold change /veh PRSS12 (11739890_at) / RFU BIN1 (11741810_x_at) / Fold change /veh BIN1 (11741810_x_at) / RFU WNT11 (11732464_a_at) / Fold change /veh WNT11 (11732464_a_at) / RFU C10orf10 (11716521_a_at) / Fold change /veh C10orf10 (11716521_a_at) / RFU C5orf56 (11738089_at) / Fold change /veh C5orf56 (11738089_at) / RFU CYB561 (11721691_x_at) / Fold change /veh CYB561 (11721691_x_at) / RFU ANKRD19P (11752326_a_at) / Fold change /veh ANKRD19P (11752326_a_at) / RFU OR2T12 /// OR2T33 /// OR2T8 (11738714_s_at) / Fold change /veh OR2T12 /// OR2T33 /// OR2T8 (11738714_s_at) / RFU VCAN (11748164_a_at) / Fold change /veh VCAN (11748164_a_at) / RFU JSRP1 (11732532_at) / Fold change /veh JSRP1 (11732532_at) / RFU KRTAP10-11 (11738290_x_at) / Fold change /veh KRTAP10-11 (11738290_x_at) / RFU MYO3A (11730013_a_at) / Fold change /veh MYO3A (11730013_a_at) / RFU EBF3 (11725865_a_at) / Fold change /veh EBF3 (11725865_a_at) / RFU CAMK2N1 (11719241_x_at) / Fold change /veh CAMK2N1 (11719241_x_at) / RFU C5orf56 (11738088_a_at) / Fold change /veh C5orf56 (11738088_a_at) / RFU OLFML3 (11715873_a_at) / Fold change /veh OLFML3 (11715873_a_at) / RFU LOC100653217 /// NTM (11731650_a_at) / Fold change /veh LOC100653217 /// NTM (11731650_a_at) / RFU MAPK11 (11762145_a_at) / Fold change /veh MAPK11 (11762145_a_at) / RFU FIZ1 (11724087_x_at) / Fold change /veh FIZ1 (11724087_x_at) / RFU OASL (11726364_x_at) / Fold change /veh OASL (11726364_x_at) / RFU SOX15 (11748057_x_at) / Fold change /veh SOX15 (11748057_x_at) / RFU CD79A (11719716_a_at) / Fold change /veh CD79A (11719716_a_at) / RFU HIST1H1D (11736915_at) / Fold change /veh HIST1H1D (11736915_at) / RFU CASKIN2 (11723855_a_at) / Fold change /veh CASKIN2 (11723855_a_at) / RFU LOC730098 (11760151_x_at) / Fold change /veh LOC730098 (11760151_x_at) / RFU OR4N2 (11742367_at) / Fold change /veh OR4N2 (11742367_at) / RFU PRRT2 (11749266_a_at) / Fold change /veh PRRT2 (11749266_a_at) / RFU SNX32 (11753110_a_at) / Fold change /veh SNX32 (11753110_a_at) / RFU CDHR5 (11726645_a_at) / Fold change /veh CDHR5 (11726645_a_at) / RFU RCAN1 (11760418_a_at) / Fold change /veh RCAN1 (11760418_a_at) / RFU FAM167A (11723789_a_at) / Fold change /veh FAM167A (11723789_a_at) / RFU FAM26E (11764081_at) / Fold change /veh FAM26E (11764081_at) / RFU ISYNA1 (11749810_s_at) / Fold change /veh ISYNA1 (11749810_s_at) / RFU ACY1 (11761880_at) / Fold change /veh ACY1 (11761880_at) / RFU 11764098_at / Fold change /veh 11764098_at / RFU SAMD14 (11745864_x_at) / Fold change /veh SAMD14 (11745864_x_at) / RFU NPB (11741838_a_at) / Fold change /veh NPB (11741838_a_at) / RFU TMPRSS6 (11731388_a_at) / Fold change /veh TMPRSS6 (11731388_a_at) / RFU KRTAP10-2 (11738614_at) / Fold change /veh KRTAP10-2 (11738614_at) / RFU ARHGAP8 /// PRR5-ARHGAP8 (11727945_x_at) / Fold change /veh ARHGAP8 /// PRR5-ARHGAP8 (11727945_x_at) / RFU KRTAP5-7 /// NADSYN1 (11734609_at) / Fold change /veh KRTAP5-7 /// NADSYN1 (11734609_at) / RFU RASL12 (11751679_a_at) / Fold change /veh RASL12 (11751679_a_at) / RFU CDKN2B (11736163_a_at) / Fold change /veh CDKN2B (11736163_a_at) / RFU PRF1 (11729649_at) / Fold change /veh PRF1 (11729649_at) / RFU, ZNF638 /// ZNF638-IT1 / Fold change vs veh, ZNF638 /// ZNF638-IT1 / RFU, PANK3 / Fold change vs veh, PANK3 / RFU, SH3YL1 / Fold change vs veh, SH3YL1 / RFU, ZEB2 / Fold change vs veh, ZEB2 / RFU, NRIP1 / Fold change vs veh, NRIP1 / RFU, PTTG1IP / Fold change vs veh, PTTG1IP / RFU, CAPN2 / Fold change vs veh, CAPN2 / RFU, MED14 / Fold change vs veh, MED14 / RFU, SNORA58 / Fold change vs veh, SNORA58 / RFU, C1orf63 / Fold change vs veh, C1orf63 / RFU, LRRFIP1 / Fold change vs veh, LRRFIP1 / RFU, NDUFAF7 / Fold change vs veh, NDUFAF7 / RFU, SLC12A2 / Fold change vs veh, SLC12A2 / RFU, IBTK / Fold change vs veh, IBTK / RFU, ESF1 / Fold change vs veh, ESF1 / Fold change vs veh, TMEM50B / RFU, TAOK1 / Fold change vs veh, TAOK1 / RFU, ACBD3 / Fold change vs veh, ACBD3 / RFU, TMA16 / Fold change vs veh, TMA16 / RFU, RWDD3 / Fold change vs veh, RWDD3 / RFU, BCAT1 / Fold change vs veh, BCAT1 / RFU, EDEM3 / Fold change vs veh, EDEM3 / RFU, TMEM33 / Fold change vs veh, TMEM33 / RFU, WDR75 / Fold change vs veh, WDR75 / RFU, AHCTF1 / Fold change vs veh, AHCTF1 / RFU, TFRC / Fold change vs veh, TFRC / RFU, ZDHHC17 / Fold change vs veh, ZDHHC17 / RFU, NOM1 / Fold change vs veh, NOM1 / RFU, ARL8B / Fold change vs veh, ARL8B / RFU, ZBTB11 / Fold change vs veh, ZBTB11 / RFU, TAMM41 / Fold change vs veh, TAMM41 / RFU, KIAA1704 /// LOC100996395 / Fold change vs veh, KIAA1704 /// LOC100996395 / RFU, ING1 / Fold change vs veh, ING1 / RFU, TRMT61B / Fold change vs veh, TRMT61B / RFU, FUBP3 / Fold change vs veh, FUBP3 / RFU, TP53 / Fold change vs veh, TP53 / RFU, TNKS2 / Fold change vs veh, TNKS2 / RFU, ZFP14 / Fold change vs veh, ZFP14 / RFU, ACTR2 / Fold change vs veh, ACTR2 / RFU, PPP3R1 / Fold change vs veh, PPP3R1 / RFU, PIK3R1 / Fold change vs veh, PIK3R1 / RFU, HNRNPA1 / Fold change vs veh, HNRNPA1 / RFU, RNF170 / Fold change vs veh, RNF170 / RFU, ZNF28 / Fold change vs veh, ZNF28 / RFU, RNGTT / Fold change vs veh, RNGTT / RFU, OGT / Fold change vs veh, OGT / RFU, BRD1 / Fold change vs veh, BRD1 / RFU, MARS / Fold change vs veh, MARS / RFU, ZNF655 / Fold change vs veh, ZNF655 / RFU, FAHD1 / Fold change vs veh, FAHD1 / RFU, BDP1 / Fold change vs veh, BDP1 / RFU, LRRCC1 / Fold change vs veh, LRRCC1 / RFU, ARID1A / Fold change vs veh, ARID1A / RFU, ZNF146 / Fold change vs veh, ZNF146 / RFU, ZNF330 / Fold change vs veh, ZNF330 / RFU, GPN3 / Fold change vs veh, GPN3 / RFU, C9orf123 / Fold change vs veh, C9orf123 / RFU, N4BP2L2 / Fold change vs veh, N4BP2L2 / RFU, ARFIP1 / Fold change vs veh, ARFIP1 / RFU, FAM179B / Fold change vs veh, FAM179B / RFU, BCL10 / Fold change vs veh, BCL10 / RFU, UHRF1BP1L / Fold change vs veh, UHRF1BP1L / RFU, BET1 / Fold change vs veh, BET1 / RFU, CNOT2 / Fold change vs veh, CNOT2 / RFU, ZNF268 / Fold change vs veh, ZNF268 / Fold change vs veh, ZNF507 / RFU, DGCR2 / Fold change vs veh, DGCR2 / RFU, WDSUB1 / Fold change vs veh, WDSUB1 / Fold change vs veh, HSP90B1 /// MIR3652 / RFU, ADSS / Fold change vs veh, ADSS / RFU, GK / Fold change vs veh, GK / RFU, ZNF148 / Fold change vs veh, ZNF148 / RFU, TAF9 / Fold change vs veh, TAF9 / RFU, SLC1A5 / Fold change vs veh, SLC1A5 / RFU, SLMO2 / Fold change vs veh, SLMO2 / RFU, ABCC4 / Fold change vs veh, ABCC4 / RFU, LOC101060439 /// RAP1B / Fold change vs veh, LOC101060439 /// RAP1B / RFU, RFX7 / Fold change vs veh, RFX7 / RFU, GTPBP10 / Fold change vs veh, GTPBP10 / RFU, CNEP1R1 / Fold change vs veh, CNEP1R1 / RFU, BIVM-ERCC5 /// ERCC5 / Fold change vs veh, BIVM-ERCC5 /// ERCC5 / RFU, ILF3 / Fold change vs veh, ILF3 / RFU 11762660_at / Fold change /veh 11762660_at / RFU VCAN (11757783_s_at) / Fold change /veh VCAN (11757783_s_at) / RFU DDX43 (11728927_at) / Fold change /veh DDX43 (11728927_at) / RFU KRT8 (11758188_x_at) / Fold change /veh KRT8 (11758188_x_at) / RFU NKD1 (11759106_at) / Fold change /veh NKD1 (11759106_at) / RFU SRD5A1 (11742802_a_at) / Fold change /veh SRD5A1 (11742802_a_at) / RFU TPSAB1 /// TPSB2 (11721975_s_at) / Fold change /veh TPSAB1 /// TPSB2 (11721975_s_at) / RFU GSTM3 (11746129_a_at) / Fold change /veh GSTM3 (11746129_a_at) / RFU IL23R (11737362_x_at) / Fold change /veh IL23R (11737362_x_at) / RFU TMEM51 (11727254_a_at) / Fold change /veh TMEM51 (11727254_a_at) / RFU PIWIL2 (11732686_x_at) / Fold change /veh PIWIL2 (11732686_x_at) / RFU ORM1 (11744905_x_at) / Fold change /veh ORM1 (11744905_x_at) / RFU CCDC152 (11743942_at) / Fold change /veh CCDC152 (11743942_at) / RFU ECM1 (11717891_a_at) / Fold change /veh ECM1 (11717891_a_at) / RFU IL23R (11748794_a_at) / Fold change /veh IL23R (11748794_a_at) / RFU TNFAIP8L3 (11732012_x_at) / Fold change /veh TNFAIP8L3 (11732012_x_at) / RFU MBOAT4 (11741988_at) / Fold change /veh MBOAT4 (11741988_at) / RFU 11764193_at / Fold change /veh 11764193_at / RFU TMEM53 (11763286_at) / Fold change /veh TMEM53 (11763286_at) / RFU MAGEB2 (11727129_at) / Fold change /veh MAGEB2 (11727129_at) / RFU TMEM200A (11744735_a_at) / Fold change /veh TMEM200A (11744735_a_at) / RFU CCDC152 (11751479_a_at) / Fold change /veh CCDC152 (11751479_a_at) / RFU FAM211A (11726209_a_at) / Fold change /veh FAM211A (11726209_a_at) / RFU RGS16 (11746705_a_at) / Fold change /veh RGS16 (11746705_a_at) / RFU VCAN (11755009_s_at) / Fold change /veh VCAN (11755009_s_at) / RFU RHOB (11743442_s_at) / Fold change /veh RHOB (11743442_s_at) / RFU RGS16 (11720943_a_at) / Fold change /veh RGS16 (11720943_a_at) / RFU RGS16 (11720944_at) / Fold change /veh RGS16 (11720944_at) / RFU, VPS4B / Fold change vs veh, VPS4B / RFU, CREB1 / Fold change vs veh, CREB1 / RFU, DNAJC13 / Fold change vs veh, DNAJC13 / RFU, GNAQ / Fold change vs veh, GNAQ / RFU, CDK5R1 / Fold change vs veh, CDK5R1 / RFU, ZRANB3 / Fold change vs veh, ZRANB3 / RFU, CUL4A / Fold change vs veh, CUL4A / RFU, CCNY / Fold change vs veh, CCNY / RFU, UFL1 / Fold change vs veh, UFL1 / RFU, COG3 / Fold change vs veh, COG3 / RFU, DIAPH2 / Fold change vs veh, DIAPH2 / RFU, SKA2 / Fold change vs veh, SKA2 / RFU, AFF3 / Fold change vs veh, AFF3 / RFU, LMF1 / Fold change vs veh, LMF1 / RFU, IPO11 / Fold change vs veh, IPO11 / RFU, DFFB / Fold change vs veh, DFFB / RFU, FOXP1 / Fold change vs veh, FOXP1 / RFU, CARD8 / Fold change vs veh, CARD8 / RFU, STRN3 / Fold change vs veh, STRN3 / RFU, ADK / Fold change vs veh, ADK / RFU, RASSF2 / Fold change vs veh, RASSF2 / RFU, WIPF1 / Fold change vs veh, WIPF1 / RFU, LARP1B / Fold change vs veh, LARP1B / RFU, RASA1 / Fold change vs veh, RASA1 / RFU, RB1 / Fold change vs veh, RB1 / RFU, PPFIA1 / Fold change vs veh, PPFIA1 / RFU, MAT2A / Fold change vs veh, MAT2A / RFU, CCT5 / Fold change vs veh, CCT5 / RFU, WDR92 / Fold change vs veh, WDR92 / RFU, CUX1 / Fold change vs veh, CUX1 / RFU, TTC7A / Fold change vs veh, TTC7A / RFU, TMEM135 / Fold change vs veh, TMEM135 / RFU, DEPTOR / Fold change vs veh, DEPTOR / RFU, CPM / Fold change vs veh, CPM / RFU, DNAJB6 / Fold change vs veh, DNAJB6 / RFU, CACNA2D3 / Fold change vs veh, CACNA2D3 / RFU, DTX4 / Fold change vs veh, DTX4 / RFU, TFCP2 / Fold change vs veh, TFCP2 / RFU, GMCL1 /// GMCL1P1 / Fold change vs veh, GMCL1 /// GMCL1P1 / RFU, AEBP2 / Fold change vs veh, AEBP2 / RFU, SNHG1 /// SNORD22 /// SNORD25 /// SNORD26 /// SNORD27 /// SNORD28 /// SNORD29 /// SNORD31 / Fold change vs veh, SNHG1 /// SNORD22 /// SNORD25 /// SNORD26 /// SNORD27 /// SNORD28 /// SNORD29 /// SNORD31 / Fold change (Aza/veh), C12orf56 (ProbeSet 11735607_a_at) / Fold change (ACY-1035/veh), C12orf56 (ProbeSet 11735607_a_at) / Fold change (Aza/veh), FGFR1OP (ProbeSet 11751329_s_at) / Fold change (ACY-1035/veh), FGFR1OP (ProbeSet 11751329_s_at) / Fold change (Aza/veh), VPS36 (ProbeSet 11739960_a_at) / Fold change (ACY-1035/veh), VPS36 (ProbeSet 11739960_a_at) / RFU SYPL1 (11715823_x_at) / Fold change /veh SYPL1 (11715823_x_at) / RFU IGFBP7 (11715501_s_at) / Fold change /veh IGFBP7 (11715501_s_at) / RFU REEP3 (11722064_at) / Fold change /veh REEP3 (11722064_at) / RFU IGLL1 (11728026_x_at) / Fold change /veh IGLL1 (11728026_x_at): dose or concentration left out as unconfirmed
Conditions: ProbeSet 11725787_a_at; LIST B

Nc1ncn([C@@H]2O[C@H](CO)[C@@H](O)[C@H]2O)c(=O)n1 [azacitidine]
RFU, TMA16: 152.00 RFU
